Experiment [1] has as its target T1, complex of FKBP-12, bovine calcineurin, bovine calmodulin and calcium ion (UniProt P48452+P62942+P63099).
T1 construct: made in house; host or cells: E. coli HB101 (vector pFKBP333, tryptophan promoter)
The experiment can be described thus: Complex formation assay with solid-phase FKBP-12, detected by anti-calcineurin enzyme immunoassay (fluorometry). The format is binding, human FKBP-12; bovine calcineurin and calmodulin. The following applies: for Concentration dependence of fluorescence intensity (in words): Table 1 concentration series; for Complex forming activity (relative %): relative to FK506 = 100, calculated from Table 1 data. The method, then: The plate was then washed 3 times with the same phosphate buffer solution as used in Preparation 1. FKBP-12 was thus bound to each well. An assay buffer (300 μl) having the composition shown below was added to each well and, after 15 minutes, it was removed, to block residual protein binding sites in each well. […] A solution (5 mg/ml) of a crude product, prepared by the conventional method, in 20 mM Tris-hydrochloride (pH 7.0) was 40-fold diluted with the above-mentioned assay buffer. Commercial bovine calmodulin was appropriately diluted with the above-mentioned assay buffer (to give a final concentration of 95 nM in the well). A methanol solution (1 mg/ml) of FK506 was appropriately diluted with the above-mentioned assay buffer. (3) Each well was washed (4 times) with the same buffer as the above-mentioned assay buffer except that it was free of bovine serum albumin and, then, an appropriate dilution (100 μl), in the assay buffer, of a rabbit polyclonal antibody recognizing the calcineurin Aα chain as obtained by the known method described, for example, in J. Neurochem., 58, 1643-1651 (1992) was added to each well, and the reaction was allowed to proceed at room temperature for 1 hour. (4) Each well was washed (4 times) with the same buffer as the above-mentioned assay buffer except that it was free of bovine serum albumin and, then, an appropriate dilution (100 μl), in the assay buffer, of alkaline phosphatase-labeled anti-rabbit IgG (Vector Laboratories) was added to each well. (5) Each well was washed (4 times) with the same buffer as the assay buffer except that it was free of bovine serum albumin and, then, 200 μl of a 4-methylumbelliferyl phosphate (hereinafter, 4-MU) substrate solution (1 mM), prepared as described below, was added to each well and, after the lapse of 20 minutes at room temperature, fluorometry (excitation wavelength 360 nm; emission wavelength 460 nm) was carried out using Cytofluor 2350 (trademark, Millipore Co. Ltd, USA). […] Ltd) was prepared with water and further diluted with a buffer solution (10 mM, pH 10.0) comprising diethanolamine (0.7 ml/l) and magnesium chloride hexahydrate (0.1 g/l) to give a 1 mM 4-MU substrate solution. Using the metabolites M-II and M-III shown below, which are already known as metabolites obtainable upon treatment of FK506 with rat liver microsome, as described, for example, in Drug Metabolism and Disposition, 21 (6), 971-977, quantitative analysis was carried out in the same manner as in Example 1.

The target of another experiment is FKBP-12 (Homo sapiens, UniProt P62942). The experiment can be described thus: FKBP-12 binding activity measurement using 3H-dihydro-FK506. The following applies: for FKBP-12 binding activity (relative %): relative to FK506 = 100. The method, then:
(1) The FKBP-12 binding activity measurement was carried out in the same manner as described in Clinical Chemistry, 38/7, 1307-1310 (1992), using ^3H-dihydro-FK506, FKBP-12, dextran charcoaled, etc.

For experiment [2], the system named is mixed lymphocyte reaction. The experiment can be described thus: in vitro mixed lymphocyte reaction (MLR) test. The format is cell-based. The following applies: for Immunosuppressive activity (in words): MLR; for Immunosuppressive activity (MLR) (relative %): relative to FK506 = 100. The method, then:
(2) The immunosuppressive activity was measured by the well-known in vitro mixed lymphocyte reaction (MLR) test described, for example, in European Patent Application EP-0184162-A2, page 67.

Sequence of FKBP-12 (P62942 whole entry): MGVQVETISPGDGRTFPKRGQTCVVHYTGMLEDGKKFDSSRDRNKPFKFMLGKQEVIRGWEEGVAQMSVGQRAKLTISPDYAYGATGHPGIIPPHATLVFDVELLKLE

For the compound `C=CC[C@@H]1/C=C(\C)C[C@H](C)C[C@H](OC)[C@H]2O[C@@](O)(C(=O)C(=O)N3CCCC[C@H]3C(=O)O[C@H](/C(C)=C/[C@@H]3CC[C@@H](O)[C@H](OC)C3)[C@H](C)[C@@H](O)CC1=O)[C@H](C)C[C@@H]2OC` [FK506, 17-Allyl-1,14-dihydroxy-12-[2-(4-hydroxy-3-methoxycyclohexyl)-1-methylvinyl]-23,25-dimethoxy-13,19,21,27-tetramethyl-11,28-dioxa-4-azatricyclo[22.3.1.0^4,9]octacos-18-ene-2,3,10,16-tetraone], in experiment [1], the “Detection by the complex assay method (in words)” value (“Detection” below) is on record as “can be detected”, the “Concentration dependence of fluorescence intensity (in words)” value (shortened to “Concentration dependence”) was “give fluorescence intensities depending on their concentrations” and the “Complex forming activity (relative %)” value is recorded as 100 relative %. The “FKBP-12 binding activity (relative %)” value on FKBP-12 came out at 100 relative %. Further, in experiment [2], the “Immunosuppressive activity (in words)” value is listed as “have immunosuppressive activity” and the “Immunosuppressive activity (MLR) (relative %)” value was found to be 100 relative %.

For the compound `C=CCC1/C=C(\C)CC(C)CC(OC)C2OC(O)(C(=O)C(=O)N3CCCCC3C(=O)OC(/C(C)=C/C3CCC(O)C(O)C3)C(C)C(O)CC1=O)C(C)CC2OC` (stereo not shown) [M-II], in experiment [1], the “Detection” value was “can be detected”, the “Concentration dependence” value is reported as “give fluorescence intensities depending on their concentrations” and the “Complex forming activity (relative %)” value is on record as 79.7 relative %. Also, on FKBP-12, the “FKBP-12 binding activity (relative %)” value came out at 14.2 relative %. Moreover, in experiment [2], the “Immunosuppressive activity (in words)” value was “have immunosuppressive activity” and the “Immunosuppressive activity (MLR) (relative %)” value came out at 100 relative %.

For the compound `C=CCC1/C=C(\C)CC(C)CC(O)C2OC(O)(C(=O)C(=O)N3CCCCC3C(=O)OC(/C(C)=C/C3CCC(O)C(C)C3)C(C)C(O)CC1=O)C(C)CC2OC` (stereo not shown) [M-III], in experiment [1], the “Detection” value was “is not detected”, the “Concentration dependence” value is listed as “does not give concentration-dependent values” and the “Complex forming activity (relative %)” value is on record as 0 relative %. In addition, on FKBP-12, the “FKBP-12 binding activity (in words)” value is on record as “has FKBP-12 binding activity” and the “FKBP-12 binding activity (relative %)” value was 116.0 relative %. In addition, in experiment [2], the “Immunosuppressive activity (in words)” value is “has no immunosuppressive activity” and the “Immunosuppressive activity (MLR) (relative %)” value was 0 relative %.

The values above are taken from patent US6338946B1, “Method for assaying immunosuppressant” (Fujisawa Pharmaceutical Co., Ltd., priority 1994, dated 2002).
